Measurements reported in US20240158446A1, “CYCLIC COMPOUND HAVING SELECTIVE INHIBITORY ACTION ON KRAS OVER HRAS AND NRAS” (CHUGAI SEIYAKU KABUSHIKI KAISHA, priority 2021, published 2024).
Where two headings read alike, the source gives them in different places. *1 amine or outer side, *2 acyl side, *3 side chain or, on linkers, in order; H or OH if unused. Where a SMILES comes first, the peptide text is derived from it. Bridges are numbered along the chain shown (N, C = ends). [ ]: non-standard residue; d: D form. The star is where a group is joined. X22 = O=C([C@H](Cc1ccc(C(F)(F)F)cc1)N(CC1CCCC1)[*:1])[*:2]; hPhe(3-Cl-4-CF3) = N[C@@H](CCc1ccc(C(F)(F)F)c(Cl)c1)C(=O)O; NPrPhe(4-CF3) = CCCN[C@@H](Cc1ccc(C(F)(F)F)cc1)C(=O)O; NEtPhe(4-CF3) = CCN[C@@H](Cc1ccc(C(F)(F)F)cc1)C(=O)O; hPhe(3,4-Cl2) = N[C@@H](CCc1ccc(Cl)c(Cl)c1)C(=O)O; NEtPhe(4-Me) = CCN[C@@H](Cc1ccc(C)cc1)C(=O)O; Pro(4-spirocPr) = O=C(O)[C@@H]1CC2(CC2)CN1; NMeGly(cPent) = CN[C@H](C(=O)O)C1CCCC1; Pro(4,4-F2) = O=C(O)[C@@H]1CC(F)(F)CN1; NMeD = CN[C@@H](CC(=O)O)C(=O)O; NMeL = CN[C@@H](CC(C)C)C(=O)O; NMeV = CN[C@H](C(=O)O)C(C)C; Morpholide = C1CN(*)CCO1; NMeA = CN[C@@H](C)C(=O)O; Ac5c = NC1(C(=O)O)CCCC1; Aze = O=C(O)[C@@H]1CCN1; Ac4c = NC1(C(=O)O)CCC1; Sar = CNCC(=O)O

Key:
[1] = molecular target: GDP-bound NRAS wild-type protein (Homo sapiens, UniProt P01111); test: Binding to NRAS by surface plasmon resonance (SPR), Single Cycle Kinetics; details: for NRAS/KRAS (ratio of KD value for NRAS to KD value for KRAS) / NRAS/KRAS (ratio of KD value with respect to NRAS to KD value with respect to KRAS): SPR, GDP-bound NRAS wild-type protein vs GDP-bound KRAS wild-type protein
[2] = molecular target: GDP-bound KRAS wild-type protein (Homo sapiens, UniProt P01116); test: Binding to KRAS by surface plasmon resonance (SPR), Single Cycle Kinetics; details: GDP-bound KRAS wild-type protein, read-out: KRAS KD
[3] = molecular target: GDP-bound HRAS wild-type protein (Homo sapiens, UniProt P01112); test: Binding to HRAS by surface plasmon resonance (SPR), Single Cycle Kinetics; details: for HRAS/KRAS (ratio of KD value for HRAS to KD value for KRAS) / HRAS/KRAS (ratio of KD value with respect to HRAS to KD value with respect to KRAS): SPR, GDP-bound HRAS wild-type protein vs GDP-bound KRAS wild-type protein
[4] = SPR Single Cycle Kinetics, 1:1 binding model

Chain of GDP-bound NRAS wild-type protein (P01111 whole entry): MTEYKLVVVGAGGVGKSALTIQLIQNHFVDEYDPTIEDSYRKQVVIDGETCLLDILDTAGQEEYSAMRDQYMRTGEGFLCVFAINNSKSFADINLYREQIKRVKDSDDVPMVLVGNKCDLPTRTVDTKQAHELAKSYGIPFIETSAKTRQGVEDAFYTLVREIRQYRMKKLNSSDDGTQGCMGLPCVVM
Chain of GDP-bound KRAS wild-type protein (P01116 whole entry): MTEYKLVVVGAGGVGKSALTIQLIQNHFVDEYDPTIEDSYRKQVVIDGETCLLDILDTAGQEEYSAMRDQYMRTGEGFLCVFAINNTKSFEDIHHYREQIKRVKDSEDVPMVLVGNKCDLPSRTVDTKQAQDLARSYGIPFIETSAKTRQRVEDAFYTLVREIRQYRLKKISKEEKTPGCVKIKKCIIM
Chain of GDP-bound HRAS wild-type protein (P01112 whole entry): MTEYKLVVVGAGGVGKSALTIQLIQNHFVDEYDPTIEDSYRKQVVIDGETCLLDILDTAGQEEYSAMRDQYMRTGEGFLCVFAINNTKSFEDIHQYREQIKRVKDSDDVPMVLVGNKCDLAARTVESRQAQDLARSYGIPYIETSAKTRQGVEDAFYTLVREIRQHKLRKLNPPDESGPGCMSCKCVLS

| Compound | NRAS/KRAS (ratio of KD value for NRAS to KD value for KRAS) [1] | Kd ([2]; SPR, Single Cycle Kinetics) [nM] | HRAS/KRAS (ratio of KD value for HRAS to KD value for KRAS) [3] | NRAS/KRAS (ratio of KD value with respect to GDP-bound NRAS wild-type protein to KD value with respect to KRAS) ([1]; SPR KD ratio NRAS/KRAS, class symbols) | Kd [2, 4] [nM] | HRAS/KRAS (ratio of KD value with respect to GDP-bound HRAS wild-type protein to KD value with respect to KRAS) ([3]; SPR KD ratio HRAS/KRAS, class symbols) | NRAS/KRAS (ratio of KD value with respect to NRAS to KD value with respect to KRAS) [1] | HRAS/KRAS (ratio of KD value with respect to HRAS to KD value with respect to KRAS) [3] |
| --- | --- | --- | --- | --- | --- | --- | --- | --- |
| CC[C@H](C)[C@@H]1NC(=O)[C@H](COC)N(C)C(=O)C[C@@H](C(=O)N2CCOCC2)N(C)C(=O)[C@H](C2CCCC2)N(C)C(=O)C2(CCC2)NC(=O)[C@@H]2C[C@@H](OCC(C)C)CN2C(=O)[C@H](CCc2cc(F)c(C(F)(F)F)c(F)c2)NC(=O)CN(C)C(=O)[C@H](Cc2ccc(C(F)(F)F)cc2)N2CCCCC[C@@H](C2=O)N(C)C(=O)CN(C)C1=O [PP0839] | B (a compound having 3 or more and less than 10 is denoted as B) | 1.1 | B (a compound having 3 or more and less than 10 is denoted as B) |  |  |  |  |  |
| CCO[C@@H]1C[C@H]2C(=O)NC3(CCC3)C(=O)N(C)[C@@H](C3CCCC3)C(=O)N(C)[C@H](C(=O)N(C)C)CC(=O)N(C)[C@@H](CC3CCCC3)C(=O)N[C@@H]([C@@H](C)CC)C(=O)N(C)CC(=O)N(C)[C@H]3C/C=C\CCN(C3=O)[C@@H](Cc3ccc(C)cc3)C(=O)N(C)CC(=O)N[C@@H](CCc3cc(F)c(CC)c(OC)c3)C(=O)N2C1 [PP2674] |  |  |  | A (a compound having 10 or more and less than 20 is denoted as A) | 0.5 | A (a compound having 10 or more and less than 20 is denoted as A) |  |  |
| CC[C@H](C)[C@@H]1NC(=O)[C@H](CC(C)C)N(C)C(=O)C[C@@H](C(=O)N2CCOCC2)N(C)C(=O)[C@H](C2CCCC2)N(C)C(=O)C2(CCCC2)NC(=O)[C@@H]2CCCN2C(=O)[C@H](CCc2ccc(C(F)(F)F)c(Cl)c2)NC(=O)CN(C)C(=O)[C@H](Cc2ccc(C(F)(F)F)cc2)N(CC2CCCC2)C(=O)[C@@H]2CCN2C(=O)[C@H](C)N(C)C1=O [PP0110] ([NMeL]I[NMeA][Aze][X22][Sar][hPhe(3-Cl-4-CF3)]P[Ac5c][NMeGly(cPent)][NMeD]-Morpholide; lactam N-11) | C (A compound having a KD ratio of 0.1 or more and less than 3 is denoted as C) |  | B (a compound having 3 or more and less than 10 is denoted as B) |  | 4 |  |  |  |
| CCO[C@@H]1C[C@H]2C(=O)NC3(CCC3)C(=O)N(C)[C@@H](C3CCCC3)C(=O)N(C)[C@H](C(=O)N3CCOCC3)CC(=O)N(C)[C@@H](CC(C)C)C(=O)N[C@@H]([C@@H](C)CC)C(=O)N(C)CC(=O)N(C)[C@H]3CCCCCN(C3=O)[C@@H](Cc3ccc(F)c(C)c3)C(=O)N(C)CC(=O)N[C@@H](CCc3cc(F)c(C(F)(F)F)c(F)c3)C(=O)N2C1 [PP0922] | B (a compound having 3 or more and less than 10 is denoted as B) | 0.5 | B (a compound having 3 or more and less than 10 is denoted as B) |  |  |  |  |  |
| CCO[C@@H]1C[C@H]2C(=O)NC3(CCC3)C(=O)N(C)[C@@H](CC(F)F)C(=O)N(C)[C@H](C(=O)N3CCOCC3)CC(=O)N(C)[C@@H](CC(C)C)C(=O)N[C@@H]([C@@H](C)CC)C(=O)N(C)CC(=O)N(C)[C@H]3CCCCCN(C3=O)[C@@H](Cc3ccc(C(F)(F)F)cc3)C(=O)N(C)CC(=O)N[C@@H](CCc3cc(F)c(C(F)(F)F)c(F)c3)C(=O)N2C1 [PP0822] | B (a compound having 3 or more and less than 10 is denoted as B) | 5.7 | B (a compound having 3 or more and less than 10 is denoted as B) |  |  |  |  |  |
| CC[C@H](C)[C@@H]1NC(=O)[C@H](CC(C)C)N(C)C(=O)C[C@@H](C(=O)N2CCOCC2)N(C)C(=O)[C@H](C2CCCC2)N(C)C(=O)C2(CCCC2)NC(=O)[C@@H]2CCCN2C(=O)[C@H](CCc2ccc(Cl)c(Cl)c2)NC(=O)CN(C)C(=O)[C@H](Cc2ccc(C(F)(F)F)cc2)N(CC)C(=O)[C@@H]2CCN2C(=O)[C@H](C)N(C)C1=O [PP0223] ([NMeL]I[NMeA][Aze][NEtPhe(4-CF3)][Sar][hPhe(3,4-Cl2)]P[Ac5c][NMeGly(cPent)][NMeD]-Morpholide; lactam N-11) | C (A compound having a KD ratio of 0.1 or more and less than 3 is denoted as C) |  | C (A compound having a KD ratio of 0.1 or more and less than 3 is denoted as C) |  | 0.4 |  |  |  |
| CCCN1C(=O)[C@@H]2CCN2C(=O)[C@H](C)N(C)C(=O)[C@H]([C@@H](C)CC)NC(=O)[C@H](CC(C)C)N(C)C(=O)C[C@@H](C(=O)N2CCOCC2)N(C)C(=O)[C@H](C2CCCC2)N(C)C(=O)C2(CCCC2)NC(=O)[C@@H]2CCN2C(=O)[C@H](CCc2ccc(C(F)(F)F)c(Cl)c2)NC(=O)CN(C)C(=O)[C@@H]1Cc1ccc(C(F)(F)F)cc1 [PP0281] ([NMeL]I[NMeA][Aze][NPrPhe(4-CF3)][Sar][hPhe(3-Cl-4-CF3)][Aze][Ac5c][NMeGly(cPent)][NMeD]-Morpholide; lactam N-11) | C (A compound having a KD ratio of 0.1 or more and less than 3 is denoted as C) |  | C (A compound having a KD ratio of 0.1 or more and less than 3 is denoted as C) |  | 0.48 |  |  |  |
| CC[C@H](C)[C@@H]1NC(=O)[C@H](CC(C)C)N(C)C(=O)C[C@@H](C(=O)N2CCOCC2)N(C)C(=O)[C@H](C(C)C)N(C)C(=O)C2(CCCC2)NC(=O)[C@@H]2CCCN2C(=O)[C@H](CCc2ccc(C(F)(F)F)c(Cl)c2)NC(=O)CN(C)C(=O)[C@H](Cc2ccc(C)cc2)N(CC)C(=O)[C@@H]2CCN2C(=O)[C@H](C)N(C)C1=O [PP0015] ([NMeL]I[NMeA][Aze][NEtPhe(4-Me)][Sar][hPhe(3-Cl-4-CF3)]P[Ac5c][NMeV][NMeD]-Morpholide; lactam N-11) | C (A compound having a KD ratio of 0.1 or more and less than 3 is denoted as C) |  | C (A compound having a KD ratio of 0.1 or more and less than 3 is denoted as C) |  | 2.7 |  |  |  |
| CC[C@H](C)[C@@H]1NC(=O)[C@H](CC(C)C)N(C)C(=O)C[C@@H](C(=O)N(C)C)N(C)C(=O)[C@H](C2CCCC2)N(C)C(=O)C2(CCCC2)NC(=O)[C@@H]2CCCN2C(=O)[C@H](CCc2cc(F)c(C(F)(F)F)c(F)c2)NC(=O)CN(C)C(=O)[C@H](Cc2ccc(C(F)(F)F)cc2)N2CCCCC[C@@H](C2=O)N(C)C(=O)CN(CC)C1=O [PP0514] |  |  |  |  | 11 |  | B (a compound having 3 or more and less than 10 is denoted as B) | B (a compound having 3 or more and less than 10 is denoted as B) |
| CCCN1C(=O)CN(C)C(=O)CN(C)C(=O)[C@H]([C@@H](C)CC)NC(=O)[C@H](CC(C)C)N(C)C(=O)C[C@@H](C(=O)N2CCOCC2)N(C)C(=O)[C@H](C2CCCC2)N(C)C(=O)C2(CCCC2)NC(=O)[C@@H]2CC3(CC3)CN2C(=O)[C@H](CCc2ccc(C(F)(F)F)c(Cl)c2)NC(=O)CN(C)C(=O)[C@@H]1Cc1ccc(C(F)(F)F)cc1 [PP0261] ([NMeL]I[Sar][Sar][NPrPhe(4-CF3)][Sar][hPhe(3-Cl-4-CF3)][Pro(4-spirocPr)][Ac5c][NMeGly(cPent)][NMeD]-Morpholide; lactam N-11) | B (a compound having 3 or more and less than 10 is denoted as B) |  | C (A compound having a KD ratio of 0.1 or more and less than 3 is denoted as C) |  | 0.14 |  |  |  |
| CCCN1C(=O)[C@@H]2CCN2C(=O)[C@H](C)N(C)C(=O)[C@H]([C@@H](C)CC)NC(=O)[C@H](CC(C)C)N(C)C(=O)C[C@@H](C(=O)N2CCOCC2)N(C)C(=O)[C@H](C2CCCC2)N(C)C(=O)C2(CCC2)NC(=O)[C@@H]2CC(F)(F)CN2C(=O)[C@H](CCc2ccc(C(F)(F)F)c(Cl)c2)NC(=O)CN(C)C(=O)[C@@H]1Cc1ccc(C(F)(F)F)cc1 [PP0208] ([NMeL]I[NMeA][Aze][NPrPhe(4-CF3)][Sar][hPhe(3-Cl-4-CF3)][Pro(4,4-F2)][Ac4c][NMeGly(cPent)][NMeD]-Morpholide; lactam N-11) | C (A compound having a KD ratio of 0.1 or more and less than 3 is denoted as C) |  | C (A compound having a KD ratio of 0.1 or more and less than 3 is denoted as C) |  | 0.26 |  |  |  |
| CC[C@H](C)[C@@H]1NC(=O)[C@H](CC(C)C)N(C)C(=O)C[C@@H](C(=O)N(C)C)N(C)C(=O)[C@H](C2CCCC2)N(C)C(=O)C2(CCC2)NC(=O)[C@@H]2CC(F)(F)CN2C(=O)[C@H](CCc2cc(F)c(C(F)(F)F)c(F)c2)NC(=O)CN(C)C(=O)[C@H](Cc2ccc(C(F)(F)F)cc2)N2CCCC[C@@H](C2=O)N(C)C(=O)CN(C)C1=O [PP0577] |  |  |  |  | 0.019 |  | C (A compound having a KD ratio of 0.1 or more and less than 3 is denoted as C) | C (A compound having a KD ratio of 0.1 or more and less than 3 is denoted as C) |
| CCO[C@@H]1C[C@H]2C(=O)NC3(CCC3)C(=O)N(C)[C@@H](C3CCCC3)C(=O)N(C)[C@H](C(=O)N(C)C)CC(=O)N(C)[C@@H](CCOC)C(=O)N[C@@H]([C@@H](C)CC)C(=O)N(C)CC(=O)N(C)[C@H]3CCCCN(C3=O)[C@@H](Cc3ccc(C(F)(F)F)cc3)C(=O)N(C)CC(=O)N[C@@H](CCc3cc(F)c(C(F)(F)F)c(F)c3)C(=O)N2C1 [PP0705] |  |  |  |  | 0.027 |  | C (A compound having a KD ratio of 0.1 or more and less than 3 is denoted as C) | C (A compound having a KD ratio of 0.1 or more and less than 3 is denoted as C) |
